This is an account of results in the METLIN SMRT retention time set (Domingo-Almenara et al. 2019).

A short description of this data set: gradient 5% acetonitrile 3 min, to 50% in 2 min, to 85% in 15 min, held 3 min, 100 µL/min. The settings on record: column: Zorbax Extend-C18 2.1 x 50 mm; eluents: water / acetonitrile, 0.1% formic acid. The essentials: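 Retention times come from adduct peaks that were picked computationally and then checked by hand. The standards, pure and pooled in mixtures of ~100 molecules, were run on a Zorbax Extend-C18 column (2.1 × 50 mm, 1.8 μm) at 100 μL/min with water and acetonitrile, each with 0.1% formic acid. Detection was by quadrupole time-of-flight mass spectrometry in positive and negative ionization mode, with a dead volume of 40 μL and a dwell volume of 900 μL.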
`Cc1ccc(C(=O)NCc2nc(-c3ccc4c(c3)nnn4C)no2)cc1` showed an RP-LC retention time of 731 s.
As for `CCOC(=O)c1nc(N(C)c2ccc(F)cc2)c2ccccc2n1`, the figure is 909 s; as for `CSc1ccc(CNC(=O)c2cc(-c3ccncc3)cn2C)cc1`, 655 s; as for `O=C(C1CCN(c2nnc(-c3ccccc3)o2)CC1)N1CCCCCC1`, 810 s.
As for `CCc1nc(OCC(=O)Nc2ccccc2F)c2ccccc2n1`, the figure is 775 s.
On to `CC(C)(C)C(=O)Nc1cnc(-c2ccc(Cl)cc2)nc1`, for which the RP-LC retention time came out at 1060 s.
As for `CCn1cc(CCNC(=O)c2cccnc2SC)c2cccnc21`, the figure is 647 s; as for `CC(Oc1ccccc1)C(=O)N1CCN(C(=O)c2nnn3c2COC(c2ccc(Cl)cc2)C3)CC1` (stereo not drawn), 972 s; as for `CCN(CC)S(=O)(=O)N1CCC(C(=O)Nc2cccc(CCc3nc4ccc(C)cc4[nH]3)c2)CC1`, 708 s.
The value for `Cc1ccccc1NC(=O)c1cn2c(n1)CCCC2` was 586 s.
The value for `Cc1nc(-c2cc(S(=O)(=O)N3CCC(C(=O)Nc4cccc(C#N)c4)CC3)c(C)s2)no1` was 949 s; that for `Cc1nc(-c2ccc(NC(=O)N3CCN(c4ccc(F)cc4)CC3)cc2)no1` was 859 s.
`COc1ccc(Cn2c(C)c(CNCc3ccc(C)o3)c(C(=O)O)c2C)cc1`: the RP-LC retention time came to 714 s.
`O=C(Cc1csc2nc(-c3ccccc3)cn12)N1CCN(c2cccc(Cl)c2)CC1` gave an RP-LC retention time of 949 s.
Take `CCC(CC)CN1CCC(n2c(C)cnc2-c2ccccc2)C1` (stereo not drawn): the RP-LC retention time worked out at 559 s.
As for `Cc1cnn(Cc2nc(-c3ccc(NC(=O)C4CCCCC4)cc3)oc2C)c1`, the figure is 881 s; as for `O=C(Cn1cccc1-c1nnc(-c2ccccc2)o1)N1CCC2(CC1)OCCO2`, 834 s.
With `Fc1cccc(-n2cc(-c3noc(-c4ccccc4)n3)nn2)c1`, the RP-LC retention time was determined as 1070 s.
The value for `Cc1cnn(Cc2nc(-c3ccc(NC(=O)CC4CCCC4)cc3)oc2C)c1` was 930 s.
Compound `CCCN1C(=O)c2cc(S(=O)(=O)Nc3ccc(F)c(F)c3)ccc2Oc2cccnc21` displayed an RP-LC retention time of 1100 s.
As for `CCS(=O)(=O)N1CC(=O)N(c2ccc(C)cc2C)C(C)(C(=O)NCc2ccc(F)cc2)C1` (stereo not drawn), the figure is 857 s.
In the case of `Cc1noc(C)c1CN1CCC(NC(=O)Cc2ccc(F)cc2)C1` (stereo not drawn), the RP-LC retention time came out at 597 s.
For `CC(C)Cc1nc(N2CCN(C(=O)c3ccc([N+](=O)[O-])cc3)CC2)c(C#N)c2c1COC(C)(C)C2`, the RP-LC retention time was found to be 1220 s.
In turn, `CC(C)(C)c1cc(NC(=O)COc2ccccc2F)n(CCO)n1` displayed an RP-LC retention time of 759 s.
The value for `Cc1cc(C)n(CCNC(=O)CSc2ccc(F)cc2)n1` was 675 s; that for `COc1ccc(OCc2nn3c(-c4ccc(OC)cc4)nnc3s2)cc1` was 947 s; that for `O=C(Cn1nc2c(Oc3ccccc3)nccn2c1=O)Nc1ccc(F)cc1Cl` was 796 s.
With `O=C1C2CC=CCC2C(=O)N1c1ccc(N2CCN(c3ccccn3)CC2)c([N+](=O)[O-])c1` (stereo not drawn), the RP-LC retention time worked out at 676 s.
As for `O=C(C1CCCC1)N1CCn2c(nnc2-c2ccccc2)C1`, the figure is 689 s; as for `CN1CCCCCCN(C(=O)c2cccs2)[C@H]2CCC[C@H]2C1=O`, 826 s.
For the compound `O=C(NCc1ccc2c(c1)OCO2)c1nn(-c2ccc(Cl)cc2)nc1CO`, the RP-LC retention time was 1010 s.
`O=C(NCc1cccs1)c1cc(=O)c(OCc2ccccc2)co1`: the RP-LC retention time turned out to be 727 s.
In turn, `CCSc1nnc(-c2nn(C)c3c2CN(C(=O)C2CCCCC2)CC3)n1C` returned an RP-LC retention time of 791 s.
